Data taken from patent publication US11931431B2, “PSMA-targeted radiopharmaceutical for diagnosing and treating prostate cancer” (FUTURECHEM CO., LTD, priority 2018, dated 2024).
“Also recorded” adds a separate entry of the source. Each block holds one compound with its values, some of them ahead of it.

Legend:
[1] = system: PSMA^+ PC-3 PIP tumors; test: MicroPET/CT imaging of mice transplanted with prostate cancer cell lines; assay type: in vivo, nude mouse
Method: A tumor model was prepared by subcutaneously injecting PSMA^+ PC-3 PIP cells (a human prostate cancer cell line) to the right side of the nude mouse hind leg. Each of the ^68Ga-labeled compounds [^68Ga]1e, [^68Ga]1g, [^68Ga]1h and [^68Ga]1k was intravenously injected with 5.5 to 6.5 MBq (148-175 μCi/200 μL), and PET/CT images were obtained using small animal INVEON PET/CT (Siemens medical solutions, Knoxville, USA) for 60 minutes. After 150 minutes, 270 minutes, and 390 minutes, PET/CT images were also obtained for 30 minutes. The obtained PET/CT image results were quantitatively analyzed using Inveon™ Research Workplace (IRW).
FIGS. 1, 2, 3, and 4 are graphs showing the quantitative analysis results of MicorPET/CT images for [^68Ga]1e, [^68Ga]1g, [^68Ga]1h, and [^68Ga]1k in % injected dose (ID)/g, and summarized in Tables 3, 4, 5, and 6, respectively.

[2] = Measurement of lipophilicity (log P), n-octanol/PBS; assay type: physicochemical; details: mean of 3
Method: Each of the [^68Ga]1 compounds (1˜2 mci) synthesized in Example 14 was transferred into a vial, and the solvent was removed, to which 1 mL of n-octanol and 1 mL of PBS were added, and the lid was well closed, followed by mixing with a vortex for 1 minute. After the layers were separated, 0.1 mL was taken from each layer and the radiation dose was measured. The radiation dose was measured by repeating 3 times, and the mean value was obtained.

[3] = system: PSMA^+ PC-3 PIP tumors; test: Biodistribution test with mice transplanted with prostate cancer cell lines (gamma counter); assay type: in vivo, nude mouse; details: 5 hours after injection, gamma counter
Method: After 270 minutes of [^68Ga]1e and [^68Ga]1g injection, microPET/CT images were obtained for 30 minutes, and then each organ (blood, muscle, fat, heart, lung, liver, spleen, stomach, intestine, kidney, bone and tumor) was extracted and the radioactivity thereof was measured using a gamma counter.

intake of mouse organ: Bladder ([1]; 10 min after injection): 19.37 ± 0.32 % ID/g | intake of mouse organ: Kidney ([1]; 10 min after injection): 21.37 ± 9.18 % ID/g | intake of mouse organ: Liver ([1]; 10 min after injection): 4.76 ± 0.42 % ID/g | intake of mouse organ: Muscle ([1]; 10 min after injection): 1.46 ± 0.14 % ID/g | intake of mouse organ: Tumor (PIP) ([1]; 10 min after injection): 2.33 ± 0.36 % ID/g | intake of mouse organ: Bladder ([1]; 20 min after injection): 47.31 ± 7.34 % ID/g | intake of mouse organ: Kidney ([1]; 20 min after injection): 10.96 ± 4.32 % ID/g | intake of mouse organ: Liver ([1]; 20 min after injection): 1.96 ± 0.22 % ID/g | intake of mouse organ: Muscle ([1]; 20 min after injection): 1.38 ± 0.11 % ID/g | intake of mouse organ: Tumor (PIP) ([1]; 20 min after injection): 3.64 ± 0.49 % ID/g | intake of mouse organ: Bladder ([1]; 30 min after injection): 55.82 ± 12.46 % ID/g | intake of mouse organ: Kidney ([1]; 30 min after injection): 10.88 ± 7.09 % ID/g | intake of mouse organ: Liver ([1]; 30 min after injection): 1.29 ± 0.05 % ID/g | intake of mouse organ: Muscle ([1]; 30 min after injection): 0.95 ± 0.13 % ID/g | intake of mouse organ: Tumor (PIP) ([1]; 30 min after injection): 4.08 ± 0.60 % ID/g | intake of mouse organ: Bladder ([1]; 40 min after injection): 60.63 ± 15.48 % ID/g | intake of mouse organ: Kidney ([1]; 40 min after injection): 14.92 ± 13.57 % ID/g | intake of mouse organ: Liver ([1]; 40 min after injection): 1.00 ± 0.03 % ID/g | intake of mouse organ: Muscle ([1]; 40 min after injection): 0.61 ± 0.05 % ID/g | intake of mouse organ: Tumor (PIP) ([1]; 40 min after injection): 4.44 ± 0.48 % ID/g | intake of mouse organ: Bladder ([1]; 50 min after injection): 64.24 ± 12.76 % ID/g | intake of mouse organ: Kidney ([1]; 50 min after injection): 15.84 ± 15.60 % ID/g | intake of mouse organ: Liver ([1]; 50 min after injection): 0.80 ± 0.02 % ID/g | intake of mouse organ: Muscle ([1]; 50 min after injection): 0.53 ± 0.05 % ID/g | intake of mouse organ: Tumor (PIP) ([1]; 50 min after injection): 4.56 ± 1.03 % ID/g | intake of mouse organ: Bladder ([1]; 60 min after injection): 67.80 ± 8.56 % ID/g | intake of mouse organ: Kidney ([1]; 60 min after injection): 15.72 ± 16.29 % ID/g | intake of mouse organ: Liver ([1]; 60 min after injection): 0.65 ± 0.04 % ID/g | intake of mouse organ: Muscle ([1]; 60 min after injection): 0.35 ± 0.05 % ID/g | intake of mouse organ: Tumor (PIP) ([1]; 60 min after injection): 4.73 ± 0.98 % ID/g | intake of mouse organ: Bladder ([1]; 150 min after injection): 31.85 ± 35.57 % ID/g | intake of mouse organ: Kidney ([1]; 150 min after injection): 0.70 ± 0.02 % ID/g | intake of mouse organ: Liver ([1]; 150 min after injection): 0.06 ± 0.01 % ID/g | intake of mouse organ: Muscle ([1]; 150 min after injection): 0.02 ± 0.01 % ID/g | intake of mouse organ: Tumor (PIP) ([1]; 150 min after injection): 4.20 ± 0.42 % ID/g | intake of mouse organ: Bladder ([1]; 270 min after injection): 1.45 ± 1.62 % ID/g | intake of mouse organ: Kidney ([1]; 270 min after injection): 0.41 ± 0.16 % ID/g | intake of mouse organ: Liver ([1]; 270 min after injection): 0.03 ± 0.01 % ID/g | intake of mouse organ: Muscle ([1]; 270 min after injection): 0.01 ± 0.01 % ID/g | intake of mouse organ: Tumor (PIP) ([1]; 270 min after injection): 4.05±0.64 % ID/g | logP [2]: −2.88 | Radioactivity in mouse organ: Blood [3]: 0.01 ± 0.00 % ID/g | Radioactivity in mouse organ: Bone [3]: 0.00 ± 0.00 % ID/g | Radioactivity in mouse organ: Fat [3]: 0.01 ± 0.00 % ID/g | Radioactivity in mouse organ: Heart [3]: 0.01 ± 0.00 % ID/g | Radioactivity in mouse organ: Intestine [3]: 0.09 ± 0.08 % ID/g | Radioactivity in mouse organ: Kidney [3]: 0.82 ± 0.51 % ID/g | Radioactivity in mouse organ: Liver [3]: 0.02 ± 0.01 % ID/g | Radioactivity in mouse organ: Lung [3]: 0.02 ± 0.01 % ID/g | Radioactivity in mouse organ: Muscle [3]: 0.01 ± 0.00 % ID/g | Radioactivity in mouse organ: PSMA + PIP (tumor intake rate) [3]: 7.34 ± 5.49 % ID/g | Radioactivity in mouse organ: Spleen [3]: 0.01 ± 0.00 % ID/g | Radioactivity in mouse organ: Stomach [3]: 0.02 ± 0.02 % ID/g
SMILES: O=C(O)CCC(NC(=O)NC(CCCCN(CC(=O)O)C(=O)COCCOCCNC(=O)CN1CCN2CCN3CCN(CC1)CC(=O)[O][68Ga]([O]C(=O)C2)[O]C(=O)C3)C(=O)O)C(=O)O (stereo not shown) [[^68Ga]1e]
excretion, in words ([1]; MicroPET/CT): rapidly excreted through the kidney and bladder; also recorded: rapidly excreted out of the body

intake of mouse organ: Bladder ([1]; 10 min after injection): 2.12 ± 0.39 % ID/g | intake of mouse organ: Heart ([1]; 10 min after injection): 24.69 ± 0.20 % ID/g | intake of mouse organ: Kidney ([1]; 10 min after injection): 13.26 ± 2.36 % ID/g | intake of mouse organ: Liver ([1]; 10 min after injection): 14.96 ± 0.03 % ID/g | intake of mouse organ: Muscle ([1]; 10 min after injection): 2.24 ± 0.15 % ID/g | intake of mouse organ: Tumor (PIP) ([1]; 10 min after injection): 1.94 ± 0.35 % ID/g | intake of mouse organ: Bladder ([1]; 20 min after injection): 2.91 ± 0.69 % ID/g | intake of mouse organ: Heart ([1]; 20 min after injection): 21.30 ± 0.11 % ID/g | intake of mouse organ: Kidney ([1]; 20 min after injection): 12.56 ± 0.86 % ID/g | intake of mouse organ: Liver ([1]; 20 min after injection): 12.71 ± 0.03 % ID/g | intake of mouse organ: Muscle ([1]; 20 min after injection): 2.97 ± 0.35 % ID/g | intake of mouse organ: Tumor (PIP) ([1]; 20 min after injection): 3.74 ± 0.97 % ID/g | intake of mouse organ: Bladder ([1]; 30 min after injection): 3.14 ± 0.51 % ID/g | intake of mouse organ: Heart ([1]; 30 min after injection): 17.38 ± 0.04 % ID/g | intake of mouse organ: Kidney ([1]; 30 min after injection): 12.61 ± 0.71 % ID/g | intake of mouse organ: Liver ([1]; 30 min after injection): 10.37 ± 0.12 % ID/g | intake of mouse organ: Muscle ([1]; 30 min after injection): 2.98 ± 0.34 % ID/g | intake of mouse organ: Tumor (PIP) ([1]; 30 min after injection): 5.00 ± 1.41 % ID/g | intake of mouse organ: Bladder ([1]; 40 min after injection): 4.52 ± 0.97 % ID/g | intake of mouse organ: Heart ([1]; 40 min after injection): 15.25 ± 0.15 % ID/g | intake of mouse organ: Kidney ([1]; 40 min after injection): 13.51 ± 0.46 % ID/g | intake of mouse organ: Liver ([1]; 40 min after injection): 8.86 ± 0.35 % ID/g | intake of mouse organ: Muscle ([1]; 40 min after injection): 3.28 ± 0.23 % ID/g | intake of mouse organ: Tumor (PIP) ([1]; 40 min after injection): 6.22 ± 1.75 % ID/g | intake of mouse organ: Bladder ([1]; 50 min after injection): 8.26 ± 4.41 % ID/g | intake of mouse organ: Heart ([1]; 50 min after injection): 13.52 ± 0.55 % ID/g | intake of mouse organ: Kidney ([1]; 50 min after injection): 13.44 ± 0.71 % ID/g | intake of mouse organ: Liver ([1]; 50 min after injection): 7.83 ± 0.45 % ID/g | intake of mouse organ: Muscle ([1]; 50 min after injection): 3.25 ± 0.36 % ID/g | intake of mouse organ: Tumor (PIP) ([1]; 50 min after injection): 7.12 ± 2.07 % ID/g | intake of mouse organ: Bladder ([1]; 60 min after injection): 12.62 ± 5.31 % ID/g | intake of mouse organ: Heart ([1]; 60 min after injection): 12.14 ± 0.91 % ID/g | intake of mouse organ: Kidney ([1]; 60 min after injection): 13.60 ± 1.72 % ID/g | intake of mouse organ: Liver ([1]; 60 min after injection): 7.19 ± 0.49 % ID/g | intake of mouse organ: Muscle ([1]; 60 min after injection): 3.14 ± 0.20 % ID/g | intake of mouse organ: Tumor (PIP) ([1]; 60 min after injection): 7.90 ± 2.46 % ID/g | intake of mouse organ: Bladder ([1]; 150 min after injection): 19.45 ± 12.23 % ID/g | intake of mouse organ: Heart ([1]; 150 min after injection): 5.55 ± 2.19 % ID/g | intake of mouse organ: Kidney ([1]; 150 min after injection): 6.40 ± 1.41 % ID/g | intake of mouse organ: Liver ([1]; 150 min after injection): 2.80 ± 0.99 % ID/g | intake of mouse organ: Muscle ([1]; 150 min after injection): 1.70 ± 0.57 % ID/g | intake of mouse organ: Tumor (PIP) ([1]; 150 min after injection): 9.90 ± 4.53 % ID/g | intake of mouse organ: Bladder ([1]; 270 min after injection): 15.90 ± 4.53 % ID/g | intake of mouse organ: Heart ([1]; 270 min after injection): 5.75 ± 0.21 % ID/g | intake of mouse organ: Kidney ([1]; 270 min after injection): 7.45 ± 1.63 % ID/g | intake of mouse organ: Liver ([1]; 270 min after injection): 3.00 ± 0.28 % ID/g | intake of mouse organ: Muscle ([1]; 270 min after injection): 1.70 ± 0.14 % ID/g | intake of mouse organ: Tumor (PIP) ([1]; 270 min after injection): 14.20 ± 0.00 % ID/g | intake of mouse organ: Bladder ([1]; 390 min after injection): 22.80 ± 9.90 % ID/g | intake of mouse organ: Heart ([1]; 390 min after injection): 3.90 ± 0.42 % ID/g | intake of mouse organ: Kidney ([1]; 390 min after injection): 5.85 ± 0.92 % ID/g | intake of mouse organ: Liver ([1]; 390 min after injection): 2.35 ± 0.07 % ID/g | intake of mouse organ: Muscle ([1]; 390 min after injection): 1.30 ± 0.14 % ID/g | intake of mouse organ: Tumor (PIP) ([1]; 390 min after injection): 16.75±0.92 % ID/g | excretion, in words ([1]; MicroPET/CT): rapidly excreted out of the body | logP [2]: −1.89
SMILES: O=C(O)CCC(NC(=O)NC(CCCCN(CC(=O)O)C(=O)COCCOCCNC(=O)C(CCCCNC(=O)CCCc1ccc(I)cc1)NC(=O)CN1CCN2CCN3CCN(CC1)CC(=O)[O][68Ga]([O]C(=O)C2)[O]C(=O)C3)C(=O)O)C(=O)O (stereo not shown) [[^68Ga]1h]
residence time in the blood, in words ([1]; MicroPET/CT): residence time in the blood was increased | tumor intake over time, in words ([1]; MicroPET/CT): tumor intake continued to increase after 390 minutes
